Source: ChEMBL document CHEMBL1933019, “Cell-based and in-silico studies on the high intrinsic activity of two boron-containing salbutamol derivatives at the human β₂-adrenoceptor” (Bioorg Med Chem, 2012)

Key:
[1] = target: T1, Beta-2 adrenergic receptor (Homo sapiens, UniProt P07550); experiment: Agonist activity at recombinant human beta2 adrenoceptor expressed in HEK293T cells assessed as increase in IBMX-induced cAMP accumulation using [3H]-cAMP after 30 mins by liquid scintillation counting; assay type: functional, cell-based, HEK-293T
T1 sequence (P07550 whole entry): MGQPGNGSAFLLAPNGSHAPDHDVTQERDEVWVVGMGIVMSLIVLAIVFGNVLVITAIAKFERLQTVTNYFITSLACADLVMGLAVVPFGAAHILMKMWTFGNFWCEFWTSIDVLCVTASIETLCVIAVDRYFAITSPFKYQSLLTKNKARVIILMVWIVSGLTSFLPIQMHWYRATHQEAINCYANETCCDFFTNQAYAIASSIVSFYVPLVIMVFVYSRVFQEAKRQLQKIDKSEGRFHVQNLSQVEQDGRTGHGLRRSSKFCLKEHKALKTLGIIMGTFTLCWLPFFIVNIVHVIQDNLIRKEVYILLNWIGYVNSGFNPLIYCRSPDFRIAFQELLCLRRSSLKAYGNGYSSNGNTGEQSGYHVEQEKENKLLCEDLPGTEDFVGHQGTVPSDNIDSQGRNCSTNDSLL

[2] = target: T1, Beta-2 adrenergic receptor; experiment: Displacement of [3H]-DHA from recombinant human beta2 adrenoceptor expressed in HEK293T cells; assay type: cell-based, HEK-293T

SMILES | EC50 [1] | Ki [2]
CC(C)(C)NC[C@H](O)c1ccc2c(c1)C[OH+][B-](O)(c1ccccc1)O2 (some centres undefined) | 138 nM | 6.61 µM
CC(C)(C)NC[C@H](O)c1ccc2c(c1)C[OH+][B-](O)(O)O2 | 166 nM | 3.89 µM
